Test results: US8530493B2, “Indolopyridines as Eg5 kinesin modulators” (4SC AG, priority 2006, dated 2013)

Test system: RKO p21 uninduced (proliferating) colon adenocarcinoma cells
Assay: Alamar Blue cell viability assay, RKO p21 uninduced (proliferating)
Format: cell-based
Details: Homo sapiens, Table B3, anti-proliferative/cytotoxic activity, 72 hours, read-out: −log EC50 RKO p21 uninduced (proliferating) (converted)
Procedure, shortened: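 RKO p21 or p27 subclones grown without Ponasterone A, i.e. proliferating, exposed 24 h after seeding to semi-log compound dilutions in DMEM/10% FCS (1% DMSO controls) for 72 h at 37° C. Alamar Blue fluorescence (544/590 nm) read relative to untreated cells; EC50 from dose-response curves, given as −log EC50 (mol/l).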

| SMILES | EC50 [nM] |
| --- | --- |
| CCOc1ccc2[nH]c3c(c2c1)C[C@@]1(C)C(=O)N(CCN2CC=CCC2)C(=O)N1[C@@H]3c1cccc(O)c1 (racemic) [Example 165, (3aSR,10RS)-2-[2-(3,6-Dihydro-2H-pyridin-1-yl)-ethyl]-6-ethoxy-10-(3-hydroxy-phenyl)-3a-methyl-3a,4,9,10-tetrahydro-2,9,10a-triaza-cyclopenta[b]fluorene-1,3-dione] | 39.8 to 251 |
| C[C@@]12Cc3c([nH]c4ccc(OC(F)F)cc34)[C@@H](c3cccc(O)c3)N1C(=O)N(CCCN1CC=CCC1)C2=O (racemic) [Example 242, (3aSR,10RS)-6-(1,1-Difluoro-methoxy)-2-[3-(3,6-dihydro-2H-pyridin-1-yl)-propyl]-10-(3-hydroxy-phenyl)-3a-methyl-3a,4,9,10-tetrahydro-2,9,10a-triaza-cyclopenta[b]fluorene-1,3-dione] | ≤ 39.8 |
| CCOc1ccc2[nH]c3c(c2c1)C[C@@]1(C)C(=O)N(CCCNCCOC)C(=O)N1[C@@H]3c1cccc(O)c1 (racemic) [Example 189, (3aSR,10RS)-6-Ethoxy-10-(3-hydroyx-phenyl)-2-[3-(2-methoxy-ethylamino)-propyl]-3a-methyl-3a,4,9,10-tetrahydro-2,9,10a-triaza-cyclopenta[b]fluorene-1,3-dione] | 39.8 to 251 |
| CCN(C)CCN1C(=O)N2[C@H](c3cccc(O)c3)c3[nH]c4cc(F)c(Cl)cc4c3C[C@@]2(C)C1=O (racemic) [Example 347, (3aSR,10RS)-6-Chloro-2-[2-(ethyl-methyl-amino)-ethyl]-7-fluoro-10-(3-hydroxy-phenyl)-3a-methyl-3a,4,9,10-tetrahydro-2,9,10a-triaza-cyclopenta[b]fluorene-1,3-dione] | ≤ 39.8 |
| CCN(C)CCCN1C(=O)N2[C@H](c3cccc(O)c3)c3[nH]c4cc(F)c(OC)cc4c3C[C@@]2(C)C1=O (racemic) [Example 311, (3aSR,10RS)-2-[3-(Ethyl-methyl-amino)-propyl]-7-fluoro-10-(3-hydroxy-phenyl)-6-methoxy-3a-methyl-3a,4,9,10-tetrahydro-2,9,10a-triaza-cyclopenta[b]fluorene-1,3-dione] | 39.8 to 251 |
| CCN(CCOC)CCN1C(=O)N2[C@H](c3cccc(O)c3)c3[nH]c4cc(F)c(Cl)cc4c3C[C@@]2(C)C1=O (racemic) [Example 350, (3aSR,10RS)-6-Chloro-2-{2-[ethyl-(2-methoxy-ethyl)-amino]-ethyl}-7-fluoro-10-(3-hydroxy-phenyl)-3a-methyl-3a,4,9,10-tetrahydro-2,9,10a-triaza-cyclopenta[b]fluorene-1,3-dione] | 39.8 to 251 |
| CC(=O)N1CCN(CCCN2C(=O)N3[C@H](c4cccc(O)c4)c4[nH]c5ccc(OC(F)F)cc5c4C[C@@]3(C)C2=O)CC1 (racemic) [Example 241, (3aSR,10RS)-2-[3-(4-Acetyl-piperazin-1-yl)-propyl]-6-(1,1-difluoro-methoxy)-10-(3-hydroxy-phenyl)-3a-methyl-3a,4,9,10-tetrahydro-2,9,10a-triaza-cyclopenta[b]fluoroene-1,3-dione] | 39.8 to 251 |
| C[C@@]12Cc3c([nH]c4ccc(Br)cc34)[C@@H](c3cccc(O)c3)N1C(=O)N(CCCN1CCCC1)C2=O (racemic) [Example 219, (3aSR,10RS)-6-Bromo-10-(3-hydroxy-phenyl)-3a-methyl-2-(3-pyrrolidin-1-yl-propyl)-3a,4,9,10-tetrahydro-2,9,10a-triaza-cyclopenta[b]fluorene-1,3-dione] | ≤ 39.8 |
| CC(C)N(C)CCN1C(=O)N2[C@H](c3cccc(O)c3)c3[nH]c4cc(F)c(Cl)cc4c3C[C@@]2(C)C1=O (racemic) [Example 352, (3aSR,10RS)-6-Chloro-7-fluoro-10-(3-hydroxy-phenyl)-2-[2-(isopropyl-methyl-amino)-ethyl]-3a-methyl-3a,4,9,10-tetrahydro-2,9,10a-triaza-cyclopenta[b]fluorene-1,3-dione] | ≤ 39.8 |
| CN1CCN(CCN2C(=O)N3[C@H](c4cccc(O)c4)c4[nH]c5ccc(OC(F)F)cc5c4C[C@@]3(C)C2=O)CC1 (racemic) [Example 294, (3aSR,10RS)-6-(1,1-Difluoro-methoxy)-10-(3-hydroxy-phenyl)-3a-methyl-2-[2-(4-methyl-piperazin-1-yl)-ethyl}-3a,4,9,10-tetrahydro-2,9,10a-triaza-cyclopenta[b]fluorene-1,3-dione] | 39.8 to 251 |
| CCN(CC)CCN1C(=O)N2[C@H](c3cccc(O)c3)c3[nH]c4ccc(OC(F)F)cc4c3C[C@@]2(C)C1=O (racemic) [Example 276, (3aSR,10RS)-2-(2-Diethylamino-ethyl)-6-(1,1-difluoro-methoxy)-10-(3-hydroxy-phenyl)-3a-methyl-3a,4,9,10-tetrahydro-2,9,10a-triaza-cyclopenta[b]fluorene-1,3-dione] | ≤ 39.8 |
| COc1cc2c3c([nH]c2cc1F)[C@@H](c1cccc(O)c1)N1C(=O)N(CCCN2CCCCCC2)C(=O)[C@]1(C)C3 (racemic) [Example 329, (3aSR,10RS)-2-(3-Azepan-1-yl-propyl)-7-fluoro-10-(3-hydroxy-phenyl)-6-methoxy-3a-methyl-3a,4,9,10-tetrahydro-2,9,10a-triaza-cyclopenta[b]fluorene-1,3-dione] | 39.8 to 251 |
| CCN(CC)CCCN1C(=O)N2[C@H](c3cccc(O)c3)c3[nH]c4ccc(OC(F)F)cc4c3C[C@@]2(C)C1=O (racemic) [Example 176, (3aSR,10RS)-2-(3-Diethylamino-propyl)-6-(1,1-difluoro-methoxy)-10-(3-hydroxy-phenyl)-3a-methyl-3a,4,9,10-tetrahydro-2,9,10a-triaza-cyclopenta[b]fluorene-1,3-dione] | ≤ 39.8 |
| C#CCNCCCN1C(=O)N2[C@H](c3cccc(O)c3)c3[nH]c4ccc(OC)cc4c3C[C@@]2(C)C1=O [Example 539, (3aS,10R)-10-(3-Hydroxy-phenyl)-6-methoxy-3a-methyl-2-(3-prop-2-ynylamino-propyl)-3a,4,9,10-tetrahydro-2,9,10a-triaza-cyclopenta[b]fluorene-1,3-dione] | ≤ 39.8 |
| C[C@@]12Cc3c([nH]c4cc(F)c(Cl)cc34)[C@@H](c3cccc(O)c3)N1C(=O)N(CCN1CCCCC1)C2=O (racemic) [Example 356, (3aSR,10RS)-6-Chloro-7-fluoro-10-(3-hydroxy-phenyl)-3a-methyl-2-(2-piperidin-1-yl-ethyl)-3a,4,9,10-tetrahydro-2,9,10a-triaza-cyclopenta[b]fluorene-1,3-dione] | 39.8 to 251 |
| CCN(CCCN1C(=O)N2[C@H](c3cccc(O)c3)c3[nH]c4cc(F)c(OC)cc4c3C[C@@]2(C)C1=O)CCOC (racemic) [Example 316, (3aSR,10RS)-2-{3-[Ethyl-(2-methoxy-ethyl)-amino]-propyl}-7-fluoro-10-(3-hydroxy-phenyl)-6-methoxy-3a-methyl-3a,4,9,10-tetrahydro-2,9,10a-triaza-cyclopenta[b]fluorene-1,3-dione] | 39.8 to 251 |
| CN1CCN(CCCN2C(=O)N3[C@H](c4cccc(O)c4)c4[nH]c5ccc(Br)cc5c4C[C@@]3(C)C2=O)CC1 (racemic) [Example 375, (3aSR,10RS)-6-Bromo-10-(3-hydroxy-phenyl)-3a-methyl-2-[3-(4-methyl-piperazin-1-yl)-propyl]-3a,4,9,10-tetrahydro-2,9,10a-triaza-cyclopenta[b]fluorene-1,3-dione] | ≤ 39.8 |
